# Tested on: KG-1
# Assay: cell viability (% survival relative to DMSO control, bortezomib = 0%); higher = less cytotoxic
# Conditions: 1 nM; 72 h
# Outline: (§1)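 Seeding density for each of the 10 AML and 5 CML cell lines was titrated to the linear growth range. Cells went into 384-well plates pre-printed in duplicate with compounds at 1, 10, 100, 1000 or 10000 nM and were held for 72 h at 37 °C with 5% CO2. CellTiter-Glo luminescence then provided the readout. Percent survival is expressed relative to vehicle at 100% and a 10 µM positive control at 0%, averaged over duplicates.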
row,SMILES,cell viability
1,O=C(Oc1ccc([N+](=O)[O-])cc1)N1CCC(C(O)(c2ccc3c(c2)OCO3)c2ccc3c(c2)OCO3)CC1 [JZL184],101%
2,O=C1N[C@@H]2[C@@H](O)[C@@H](O)[C@H](O)[C@@H](CO)N2C1=O [Kifunensine],96.1%
3,CC(C)(CCCCCCCCCCC(C)(C)CC(=O)O)CC(=O)O [MEDICA 16],91.7%
4,Cc1nnc(-c2ccc(N3CCC(Oc4ccccc4C(F)(F)F)CC3)nn2)s1 [MF-438],62.5%
5,CC(C)c1ccc2c(c1)c(SC(C)(C)C)c(CC(C)(C)C(=O)O)n2Cc1ccc(Cl)cc1 [MK-886],111%
6,O=C(CCl)N(CCCNC(=O)C(F)(F)F)c1ccc([N+](=O)[O-])cc1 [ML175],109%
7,CN(C)C(=N)NC(=N)N [Metformin],97.4%
8,Cl.OC[C@H]1NC[C@H](O)[C@@H](O)[C@H]1O [Migalastat],104%
9,OCCN1C[C@H](O)[C@@H](O)[C@H](O)[C@H]1CO [Miglitol],101%
10,"CCCCCCCCCCCCC/C=C/[C@@H](O)[C@H](CO)N(C)C [N,N-Dimethylsphingosine]",92.2%
11,CCCCCCCNC=O [N-Heptyl-Formamide],99.6%

# Same assay, conditions: 10 nM; 72 h
row,SMILES,cell viability
1,O=C(Oc1ccc([N+](=O)[O-])cc1)N1CCC(C(O)(c2ccc3c(c2)OCO3)c2ccc3c(c2)OCO3)CC1 [JZL184],107%
2,O=C1N[C@@H]2[C@@H](O)[C@@H](O)[C@H](O)[C@@H](CO)N2C1=O [Kifunensine],93.2%
3,CC(C)(CCCCCCCCCCC(C)(C)CC(=O)O)CC(=O)O [MEDICA 16],95.8%
4,Cc1nnc(-c2ccc(N3CCC(Oc4ccccc4C(F)(F)F)CC3)nn2)s1 [MF-438],133%
5,CC(C)c1ccc2c(c1)c(SC(C)(C)C)c(CC(C)(C)C(=O)O)n2Cc1ccc(Cl)cc1 [MK-886],102%
6,O=C(CCl)N(CCCNC(=O)C(F)(F)F)c1ccc([N+](=O)[O-])cc1 [ML175],109%
7,CN(C)C(=N)NC(=N)N [Metformin],97.3%
8,Cl.OC[C@H]1NC[C@H](O)[C@@H](O)[C@H]1O [Migalastat],98.9%
9,OCCN1C[C@H](O)[C@@H](O)[C@H](O)[C@H]1CO [Miglitol],95.7%
10,"CCCCCCCCCCCCC/C=C/[C@@H](O)[C@H](CO)N(C)C [N,N-Dimethylsphingosine]",96.8%
11,CCCCCCCNC=O [N-Heptyl-Formamide],110%

# Same assay, conditions: 100 nM; 72 h
row,SMILES,cell viability
1,O=C(Oc1ccc([N+](=O)[O-])cc1)N1CCC(C(O)(c2ccc3c(c2)OCO3)c2ccc3c(c2)OCO3)CC1 [JZL184],100%
2,O=C1N[C@@H]2[C@@H](O)[C@@H](O)[C@H](O)[C@@H](CO)N2C1=O [Kifunensine],112%
3,CC(C)(CCCCCCCCCCC(C)(C)CC(=O)O)CC(=O)O [MEDICA 16],98.6%
4,Cc1nnc(-c2ccc(N3CCC(Oc4ccccc4C(F)(F)F)CC3)nn2)s1 [MF-438],94.3%
5,CC(C)c1ccc2c(c1)c(SC(C)(C)C)c(CC(C)(C)C(=O)O)n2Cc1ccc(Cl)cc1 [MK-886],89.4%
6,O=C(CCl)N(CCCNC(=O)C(F)(F)F)c1ccc([N+](=O)[O-])cc1 [ML175],96.8%
7,CN(C)C(=N)NC(=N)N [Metformin],101%
8,Cl.OC[C@H]1NC[C@H](O)[C@@H](O)[C@H]1O [Migalastat],107%
9,OCCN1C[C@H](O)[C@@H](O)[C@H](O)[C@H]1CO [Miglitol],91.9%
10,"CCCCCCCCCCCCC/C=C/[C@@H](O)[C@H](CO)N(C)C [N,N-Dimethylsphingosine]",101%
11,CCCCCCCNC=O [N-Heptyl-Formamide],86.4%

# Same assay, conditions: 1000 nM; 72 h
row,SMILES,cell viability
1,O=C(Oc1ccc([N+](=O)[O-])cc1)N1CCC(C(O)(c2ccc3c(c2)OCO3)c2ccc3c(c2)OCO3)CC1 [JZL184],104%
2,O=C1N[C@@H]2[C@@H](O)[C@@H](O)[C@H](O)[C@@H](CO)N2C1=O [Kifunensine],88.6%
3,CC(C)(CCCCCCCCCCC(C)(C)CC(=O)O)CC(=O)O [MEDICA 16],107%
4,Cc1nnc(-c2ccc(N3CCC(Oc4ccccc4C(F)(F)F)CC3)nn2)s1 [MF-438],115%
5,CC(C)c1ccc2c(c1)c(SC(C)(C)C)c(CC(C)(C)C(=O)O)n2Cc1ccc(Cl)cc1 [MK-886],93.8%
6,O=C(CCl)N(CCCNC(=O)C(F)(F)F)c1ccc([N+](=O)[O-])cc1 [ML175],6.67%
7,CN(C)C(=N)NC(=N)N [Metformin],100%
8,Cl.OC[C@H]1NC[C@H](O)[C@@H](O)[C@H]1O [Migalastat],99.6%
9,OCCN1C[C@H](O)[C@@H](O)[C@H](O)[C@H]1CO [Miglitol],94.7%
10,"CCCCCCCCCCCCC/C=C/[C@@H](O)[C@H](CO)N(C)C [N,N-Dimethylsphingosine]",82.7%
11,CCCCCCCNC=O [N-Heptyl-Formamide],108%

# Same assay, conditions: 10000 nM; 72 h
row,SMILES,cell viability
1,O=C(Oc1ccc([N+](=O)[O-])cc1)N1CCC(C(O)(c2ccc3c(c2)OCO3)c2ccc3c(c2)OCO3)CC1 [JZL184],94%
2,O=C1N[C@@H]2[C@@H](O)[C@@H](O)[C@H](O)[C@@H](CO)N2C1=O [Kifunensine],85.6%
3,CC(C)(CCCCCCCCCCC(C)(C)CC(=O)O)CC(=O)O [MEDICA 16],99.8%
4,Cc1nnc(-c2ccc(N3CCC(Oc4ccccc4C(F)(F)F)CC3)nn2)s1 [MF-438],106%
5,CC(C)c1ccc2c(c1)c(SC(C)(C)C)c(CC(C)(C)C(=O)O)n2Cc1ccc(Cl)cc1 [MK-886],91.5%
6,O=C(CCl)N(CCCNC(=O)C(F)(F)F)c1ccc([N+](=O)[O-])cc1 [ML175],-0.879%
7,CN(C)C(=N)NC(=N)N [Metformin],96.3%
8,Cl.OC[C@H]1NC[C@H](O)[C@@H](O)[C@H]1O [Migalastat],96.3%
9,OCCN1C[C@H](O)[C@@H](O)[C@H](O)[C@H]1CO [Miglitol],101%
10,"CCCCCCCCCCCCC/C=C/[C@@H](O)[C@H](CO)N(C)C [N,N-Dimethylsphingosine]",37.4%
11,CCCCCCCNC=O [N-Heptyl-Formamide],95.5%

# Tested on: KU-812
# Assay: as above
# Conditions: 1 nM; 72 h
# Outline: as §1
row,SMILES,cell viability
1,O=C(Oc1ccc([N+](=O)[O-])cc1)N1CCC(C(O)(c2ccc3c(c2)OCO3)c2ccc3c(c2)OCO3)CC1 [JZL184],101%
2,O=C1N[C@@H]2[C@@H](O)[C@@H](O)[C@H](O)[C@@H](CO)N2C1=O [Kifunensine],92.5%
3,CC(C)(CCCCCCCCCCC(C)(C)CC(=O)O)CC(=O)O [MEDICA 16],106%
4,Cc1nnc(-c2ccc(N3CCC(Oc4ccccc4C(F)(F)F)CC3)nn2)s1 [MF-438],93.9%
5,CC(C)c1ccc2c(c1)c(SC(C)(C)C)c(CC(C)(C)C(=O)O)n2Cc1ccc(Cl)cc1 [MK-886],109%
6,O=C(CCl)N(CCCNC(=O)C(F)(F)F)c1ccc([N+](=O)[O-])cc1 [ML175],99.1%
7,CN(C)C(=N)NC(=N)N [Metformin],102%
8,Cl.OC[C@H]1NC[C@H](O)[C@@H](O)[C@H]1O [Migalastat],92.1%
9,OCCN1C[C@H](O)[C@@H](O)[C@H](O)[C@H]1CO [Miglitol],101%
